Test results reported in ChEMBL document CHEMBL1157744, “Small molecule antagonist of leukocyte function associated antigen-1 (LFA-1): structure-activity relationships leading to the identification of 6-((5S,9R)-9-(4-cyanophenyl)-3-(3,5-dichlorophenyl)-1-methyl-2,4-dioxo-1,3,7-triazaspiro[4.4]nonan-7-yl)nicotinic acid (BMS-688521)” (J Med Chem, 2010).
Active and inactive are the calls of the source. No cut-off for these calls is given here.

Experiments:
in vivo [1] = details: rat, iv, 1 mg/kg
Mus musculus [2] = species on record: Mus musculus; details: BALB/c, 3 to 10 mg/kg
in vivo [3] = details: rat, iv, 1 mg/kg; remark: listed apart in the source
in vivo [4] = details: mouse, plasma, po, 5 mg/kg
in vivo [5] = details: rat, plasma, po, 5 mg/kg
Mus musculus [6] = species on record: Mus musculus; details: in vivo, po, 5 mg/kg
in vivo [7] = details: dog, po, 5 mg/kg
in vivo [8] = details: dog, po, 5 mg/kg; remark: listed apart in the source
in vivo [9] = details: dog, plasma, po, 5 mg/kg
in vitro [10] = details: human, serum
in vivo [11] = details: mouse, po, 5 mg/kg
in vivo [12] = details: mouse, iv, 1 mg/kg
[13] = molecular target: T1, Integrin alpha-2/beta-3 (Homo sapiens) (UniProt P05106+P17301); details: 30 uM
[14] = molecular target: Integrin alpha-M (Homo sapiens) (UniProt P11215); details: THP-1, 10 uM
in vivo [15] = details: mouse, po, 5 mg/kg; remark: listed apart in the source
in vivo [16] = details: dog, iv, 1 mg/kg
in vivo [17] = details: mouse, iv, 1 mg/kg; remark: listed apart in the source
[18] = molecular target: T1, Integrin alpha-2/beta-3 (Homo sapiens); details: 30 uM; remark: listed apart in the source
[19] = molecular target: Integrin alpha-4/beta-1 (Homo sapiens) (UniProt P05556+P13612); details: Jurkat, 10 uM
in vivo [20] = details: rat, po, 5 mg/kg
in vitro [21] = details: Purkinje fibers
Canis familiaris = species on record: Canis familiaris; details: dog, in vivo, po, 5 mg/kg
in vitro [22] = details: human, Caco-2
in vivo [23] = details: mouse, iv, 1 mg/kg; remark: listed apart in the source
in vivo [24] = details: rat, po, 5 mg/kg; remark: listed apart in the source
in vivo [25] = details: dog, iv, 1 mg/kg; remark: listed apart in the source
in vivo [26] = details: dog, iv, 1 mg/kg; remark: listed apart in the source
in vivo [27] = details: rat, iv, 1 mg/kg; remark: listed apart in the source
hERG (KCNH2) = hERG (KCNH2) (Homo sapiens, UniProt Q12809); experiment: in vitro
Mus musculus [28] = species on record: Mus musculus; details: BALB/c, 1 mg/kg
in vivo [29] = details: rat, iv, 1 mg/kg; remark: listed apart in the source
in vivo [30] = details: dog, iv, 1 mg/kg; remark: listed apart in the source
Rattus norvegicus = species on record: Rattus norvegicus; details: in vivo, po, 5 mg/kg
in vivo [31] = details: mouse, iv, 1 mg/kg; remark: listed apart in the source

Chain of hERG (KCNH2) (Q12809 whole entry): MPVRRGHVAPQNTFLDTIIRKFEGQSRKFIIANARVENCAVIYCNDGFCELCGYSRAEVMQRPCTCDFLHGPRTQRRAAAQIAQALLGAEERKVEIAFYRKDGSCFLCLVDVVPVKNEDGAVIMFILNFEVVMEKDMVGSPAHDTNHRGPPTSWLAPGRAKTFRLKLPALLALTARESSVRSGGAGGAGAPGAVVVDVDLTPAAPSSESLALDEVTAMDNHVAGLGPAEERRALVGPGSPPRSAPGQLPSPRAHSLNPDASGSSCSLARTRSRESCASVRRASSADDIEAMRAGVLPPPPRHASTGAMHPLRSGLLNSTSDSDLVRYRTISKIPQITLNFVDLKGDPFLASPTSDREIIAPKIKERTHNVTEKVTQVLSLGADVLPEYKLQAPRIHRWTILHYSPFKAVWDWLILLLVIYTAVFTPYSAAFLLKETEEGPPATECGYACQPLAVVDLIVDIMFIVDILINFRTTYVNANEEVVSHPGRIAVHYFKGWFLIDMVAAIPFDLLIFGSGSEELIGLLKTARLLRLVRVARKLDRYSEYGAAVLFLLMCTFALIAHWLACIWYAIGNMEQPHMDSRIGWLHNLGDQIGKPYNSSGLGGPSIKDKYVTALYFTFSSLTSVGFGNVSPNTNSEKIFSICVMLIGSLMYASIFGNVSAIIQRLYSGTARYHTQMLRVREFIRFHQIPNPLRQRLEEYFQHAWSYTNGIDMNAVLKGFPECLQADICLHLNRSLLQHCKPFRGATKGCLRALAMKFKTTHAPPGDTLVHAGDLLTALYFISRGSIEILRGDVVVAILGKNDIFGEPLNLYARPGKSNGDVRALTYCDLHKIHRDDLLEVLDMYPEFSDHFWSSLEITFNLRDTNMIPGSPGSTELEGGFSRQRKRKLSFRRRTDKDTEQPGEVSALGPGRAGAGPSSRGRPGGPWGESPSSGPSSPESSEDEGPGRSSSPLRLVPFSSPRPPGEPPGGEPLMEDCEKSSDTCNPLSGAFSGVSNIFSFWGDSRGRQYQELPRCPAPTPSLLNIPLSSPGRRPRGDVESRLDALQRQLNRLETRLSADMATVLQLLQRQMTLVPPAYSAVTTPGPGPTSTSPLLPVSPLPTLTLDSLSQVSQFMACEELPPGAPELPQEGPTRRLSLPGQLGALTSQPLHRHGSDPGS

Compound: CN1C(=O)N(c2cc(Cl)cc(Cl)c2)C(=O)[C@]12CN(c1ccc(C(=O)O)cn1)C[C@H]2c1ccc(C#N)cc1
- clearance (in vivo [1]): 11 mL/min/kg
- inhibition (Mus musculus [2]): Dose-dependent effect
- Vd (in vivo [3]): 2.3 L/kg
- AUC (in vivo [4]): 1.5 µM·h
- AUC (in vivo [5]): 13 µM·h
- Tmax (Mus musculus [6]): 1 h
- bioavailability (in vivo [7]): 48%
- Cmax (in vivo [8]): 22000 nM
- AUC (in vivo [9]): 102 µM·h
- fraction unbound (in vitro [10]): 0.05
- Cmax (in vivo [11]): 320 nM
- Vd (in vivo [12]): 5.1 L/kg
- inhibition [13]: 0%
- inhibition [14]: 18%
- bioavailability (in vivo [15]): 50%
- MRT (in vivo [16]): 6.9 h
- MRT (in vivo [17]): 1.7 h
- inhibition [18]: 0%
- inhibition [19]: 0%
- bioavailability (in vivo [20]): 82%
- inhibition at 30 µM (in vitro [21]): < 5%
- Tmax (Canis familiaris): 2.9 h
- Papp A→B (in vitro [22]): 14.8 ×10⁻⁶ cm/s
- clearance (in vivo [23]): 50 mL/min/kg
- Cmax (in vivo [24]): 2300 nM
- half-life (in vivo [25]): 4.7 h
- clearance (in vivo [26]): 0.5 mL/min/kg
- MRT (in vivo [27]): 3.5 h
- inhibition at 30 µM (hERG (KCNH2)): 20%
- inhibition (Mus musculus [28]): Active
- half-life (in vivo [29]): 3.3 h
- Vd (in vivo [30]): 0.2 L/kg
- Tmax (Rattus norvegicus): 1.7 h
- half-life (in vivo [31]): 1.6 h
